From patent publication US11154551B2, “HDAC1,2 inhibitors and methods of using the same” (UNIVERSITY OF UTAH RESEARCH FOUNDATION, priority 2014, dated 2021)
Entries after “also recorded” stand apart in the source; their conditions may differ.

Tests used:
Hdac1,2 = test: in vitro enzyme assays, IC50 determination (FIG. 17A); assay type: biochemical
Protocol: (A). For IC50 determination, recombinant HDAC enzymes were treated with HDAC1,2 or HDAC3 inhibitors in in vitro HDAC assays. (B). Western blots for H3K23ac using extracts from Pre-B-ALL SupB15 cells treated with increasing dose of HDAC1,2 inhibitor (ACY1035). (C). Hdac1^FI/FI, 2^FI/FI cells were infected with Ad-Cre virus to delete HDAC1 and HDAC2 (HDAC1,2 null) or uninfected (WT). (D). Hdac3^FI/FI cells were either uninfected (WT) or infected with Ad-Cre virus to delete Hdac3. HDAC3-null cells were treated with DMSO or the HDAC1,2 selective inhibitor.
We have determined 2 μM (FIG. 17B) as the minimum dose for the ACY compounds, respectively, that when added to cells increased H3K23ac (a mark targeted by Hdac1,2 but not Hdac3).

[1] = tested on: SupB15 (Ph+PreB-ALL) cells; test: γH2AX immunofluorescence; assay type: cell-based, human; conditions: 2 μM, 48 hours
Protocol: (§1) SupB15 cells were treated with 2 μM ACY1035, ACY1071, ACY957, or solvent (DMSO) for 48 hours. (A) Immunofluorescence with γH2AX was performed on treated SupB15 cells. The number of γH2AX foci was counted in around 100 cells for each treatment and classified into cells with no foci, 1-5, 6-10, and greater than 10 foci. (B) SupB15 cells treated with DMSO or ACY1035 for 48 hours were tested via neutral comet assay to measure the amount of double-strand breaks (DSBs), indicated by the tail.
BCR-ABL promotes DNA repair to prevent DNA damage accumulation in Philadelphia chromosome-positive (Ph+) leukemia cells. To examine the effect of various HDAC1,2-selective inhibitors on DNA repair and DNA damage response in Pre-B-ALL cells that express BCR-ABL, SupB15 (Ph+PreB-ALL) cells were treated with 2 μM ACY1035 or 2 μM ACY1071 or 2 μM ACY957 for 48 hours.

SupB15 cells [2] = test: neutral comet assay; assay type: cell-based, human; conditions: 48 hours
Protocol: as §1
We next asked whether double-strand break repair is impaired in SupB15 cells. We used neutral comet assays to measure the efficiency of double-strand break repair following treatment with ACY1035 for 48 hours. The neutral comet assay specifically measures double-strand breaks and not single-strand breaks. In this assay, control and HDAC1,2 inhibitor treated SupB15 cells were embedded in low melting agarose and subjected to electrophoresis to separate damaged DNA from intact DNA. Damaged DNA runs faster and therefore forms a tail, and the intact DNA is present in the head (FIG. 24B). DNA was visualized with sybrgreen staining.

SupB15 cells [3] = test: BrdU ChIP assay, γH2AX on nascent chromatin; assay type: cell-based, human
Text: The majority of chromatin-bound proteins that decreased following ACY1035 plus doxorubicin treatment compared to ACY1035 treatment alone belong to DNA replication and DNA replication-associated repair processes (FIGS. 29A and 29B).

[4] = tested on: Ph+ALL patient derived xenograft; test: Ph+ALL patient-derived xenograft mouse model; assay type: in vivo; conditions: for human CD45 and CD19 markers in bone marrow: 25 mg/kg ACY1035 every other day i.p., 0.25 mg/kg doxorubicin once a week i.v., vs solvent; for white cell burden: vs solvent-treated mice
Protocol: Patient-derived xenograft mice were treated with either cyclodextrin (solvent) or 25 mg/kg ACY1035 every other day for a total of 21 doses. (A) The level of human CD19, CD45, and CD34 markers were assessed in the bone marrow of these mice by FACS analysis. For each FACS marker, the bars represent (from left to right): solvent, ACY1035, doxorubicin, ACY1035+doxorubicin. (B) Solvent-treated mice have bones infiltrated with white blood cells.
Additional experiments were performed to assess the therapeutic benefits of HDAC1,2 inhibition in vivo using primary Ph+ALL patient derived xenograft mouse models. NOD/SCID mice were irradiated with a sub lethal dose of irradiation to ablate the immune system in these mice. Immune-compromised NSG mice were then injected with 2×10^6 CD34+ cells isolated from a Ph+ ALL patient. Bone and spleens were harvested from these primary xenograft mice when the leukemia burden reached the maximum 90-95% level as determined by FACS analysis for human CD19 and CD45 markers. Cells isolated from bone marrow and spleen of these primary xenograft mice were frozen in liquid nitrogen until use. A mixture of bone marrow and spleen cells from the primary xenograft mice was then injected into a cohort of sub-lethally irradiated NOD/SCID mice. Mice were divided into four treatment groups: solvent, ACY1035, doxorubicin, and ACY1035 plus doxorubicin. Xenograft mice were injected according to one of the four treatment groups after 5 days post-xenograft induction, when human CD45 marker reached around 5-10% in the peripheral blood. Mice were injected with 25 mg/kg ACY1035 every other day via i.p. and 0.25 mg/kg doxorubicin once a week via i.v., a dosing schedule that has minimal toxicity in immune compromised mice.
In this PDX model, the majority of leukemia cells homed in the bone marrow and not spleen. […] Furthermore, a decrease in human CD34+ stem/progenitor cells was observed similar to the results obtained from in vitro studies (FIG. 33A). […] The disclosed mechanistic and preclinical results provide strong evidence that HDAC1,2 inhibition or HDAC1,2 inhibition in combination with doxorubicin can provide a very potent therapeutic for Ph+PreB-ALL.

[5] = tested on: non-transformed, mouse bone marrow Pro-B derived Baf3 cells or cord blood stem cells; test: cell death in non-transformed cells; assay type: cell-based; conditions: 2 μM, within 72 hr
Text: Therefore, transformed lymphoma cells are more sensitive to HDAC1,2 inhibition when compared to the untransformed normal B-cells. HDAC1,2 inhibitor causes replication fork collapse in S-phase to trigger DNA damage response, and transformed cancer cells have increased DNA replication when compared to normal B cells. […] In addition to this property, EZH2^GOF DLBCL cells also have increased DNA repair compared to EZH2^WT DLBCL cells (FIG. 34A), which can also be targeted by HDAC1,2 inhibitor as it impairs the HDAC1,2 regulated DNA repair processes used by EZH2^GOF DLBCL cells for their survival.

[6] = tested on: doxorubicin-resistant EZH2GOF DLBCL (Karpas-422/NSG); test: Karpas-422/NSG xenograft mouse model; assay type: in vivo; conditions: seventeen doses of ACY1035, five doses of doxorubicin
Protocol: (C) FACS analyses of human CD19 and IgM markers in peripheral blood of Karpas-422/NSG xenograft mice treated with solvent or doxorubicin (Doxo) or the HDAC1,2 inhibitor ACY1035 (H12IN). Seventeen doses of HDAC1,2 inhibitor and five doses of doxorubicin were administered.
The in vivo testing used a doxorubicin-resistant EZH2^GOF DLBCL (Karpas-422/NSG) mouse model and a doxorubicin-sensitive EZH2^WT DLBCL (SUDHL8/NSG) mouse model (FIG. 36). To create these models, NOD-SCID-Gamma (NSG) mice were injected intravenously (i.v.) with 1×10^6 Karpas-422 cells (chemoresistant and expressing the EZH2 gain-of-function mutant) or SUDHL8 cells (chemosensitive and expressing wild-type EZH2).

[7] = tested on: normal NOD-SCID-Gamma mice; conditions: mouse
[8] = tested on: normal NOD-SCID-Gamma mice; test: hematoxylin and eosin staining of bone marrow and spleen, toxicity; conditions: 25 mg/kg ACY1035 (fifteen doses) or 0.5 mg/kg doxorubicin (six doses)
Karpas-422 cells = test: propidium-iodide / BrdU-PI cell cycle analysis; assay type: cell-based, human; conditions: 48 h
Protocol: (B): Quantitation of the cell cycle data in (A), compiled from three independent analyses. The graphs plotted the average percentage of cells in each phase of the cell cycle. […] (C): FACS analysis following BrdU-PI staining of Karpas-422 and SUDHL4 cells was performed following a 48 h or 72 h treatment with ACY-957.
Cell cycle analysis of propidium-iodide stained cells was performed with fixed cells. […] (C): FACS analysis following BrdU-PI staining of Karpas-422 and SUDHL4 cells was performed following a treatment with 2 μM ACY-957, 50 nM doxorubicin or both for 48 h.
(B): Quantitation of the cell cycle analysis performed in (A). Data from three independent cell cycle analyses were compiled and average percentage cells with standard errors were shown in this panel.
Propidium-iodide Cell Cycle Analysis.
Since these DLBCL cells expressed a hyperactive form of EZH2, pharmacological inhibition of EZH2 activity was considered a therapeutic strategy. […] GSK126 was a S-adenosyl-methionine-competitive inhibitor of EZH2 methyltransferase activity, and DZNep was a S-adenosylhomocysteine hydrolase inhibitor that disrupted the components of the PRC2 complex, thereby causing reduced chromatin-associated EZH2 levels.
To test this possibility, cell cycle analysis following treatment of Karpas-422 with ACY-957, doxorubicin, or ACY-957 in combination with doxorubicin was performed.

[9] = tested on: Karpas-422 (EZH2GOF) cells; test: neutral comet assay of DSB repair; assay type: cell-based, human
Text: (A) Measurement of repair efficiency in SUDHL5 (EZH2^WT) and Karpas-422 (EZH2^GOF) cells using neutral comet assay that detects only double-strand breaks (DSBs). In the comet, the head (H) represents intact DNA and the tail (T) represents the number of DSBs in a single cell. Tail moment is a measure of length and intensity of DNA in the tail, and the average tail moments from 100 comets are indicated within the figure for each cell/treatment combination. Doxo indicates doxorubicin; H121N indicates HDAC1,2 inhibitor. (B) DNA damage in EZH2GOF cells following knockdown of HDAC1,2 using siRNA. NT indicates non-targeting control siRNA; HDAC1,2 siRNA indicates combined treatment with HDAC1 siRNA and HDAC2 siRNA. (C) Karpas-422 cells treated with DMSO solvent or HDAC1,2 inhibitor were subjected to microlaser irradiation. H3K27me3, γH2AX, Bmi-1, and serine2-phosphorylated RNA Polymerase II (engaged in transcriptional elongation) were monitored at laser break sites (arrows) after 15 minutes of recovery time. Numbers overlaying the images indicate percentages of cells with γH2AX lines that co-localized with H3K27me3, Bmi-1, or Pol2Ser2-P lines from at least four independent experiments (p value<0.01).
Indeed, EZH2, H3K27me3, and HDAC1,2 all localize to sites of DNA breaks, which links them to DNA repair. […]

[10] = tested on: SupB15 Pre-B-ALL leukemia xenograft; test: SupB15 Pre-B-ALL leukemia xenograft mice; assay type: in vivo, mouse; conditions: same concentration of doxorubicin
Text: Pre-B-ALL cell lines as well as Ph+ALL primary patient samples were engrafted in NOD scid gamma (NSG) mice to examine the efficacy of Hdac1,2 inhibitor in killing cells in vivo. We injected NSG mice with SupB15 cells (1×10^6) and Ph+Pre-B-ALL primary patient cells and monitored engraftment by flow cytometry using anti-human CD45/CD19 antibodies every week for 4-5 weeks. […] To examine the extent of leukemia infiltration in spleen and bone marrow, we performed IHC analysis.

## Nc1ccc(-c2cccs2)cc1NC(=O)c1ccc2c(c1)cc(C1CC1)n2CCN1CCOCC1 [ACY-1035, N-(2-amino-5-(thiophen-2-yl)phenyl)-2-cyclopropyl-1-(2-morpholinoethyl)-1H-indole-5-carboxamide]
Hdac1,2
  inhibition of Hdac1,2 activities compared to Hdac3 (IC50 values): very selectively
[1]
  DNA damage, quantitation of γH2AX foci: statistically significant increase in DNA damage
SupB15 cells [2]
  damaged DNA (comet tail): increase in damaged DNA
SupB15 cells [3]
  γH2AX on the nascent chromatin: increase in γH2AX on the nascent chromatin
[4]
  human CD45 and CD19 markers in bone marrow: significant reduction in the human CD45 and CD19 markers; also recorded: greater decrease in the human leukemia markers when compared to doxorubicin-treated mice
  white cell burden: decrease in the white cell burden
[5]
  cell death: did not cause any cell death
[6]
  human CD19 and IgM population in peripheral blood: significant decrease in human CD19 and IgM population in peripheral blood
[7]
  toxic effects in vivo: does not have toxic effects in vivo
[8]
  morphology of bone marrow and spleen cells: No changes in the morphology of spleen or bone marrow cells; also recorded: no abnormalities or changes in the cell morphology in bone marrow or spleens

## COc1cccc2c1C(=O)c1c(O)c3c(c(O)c1C2=O)C[C@@](O)(C(=O)CO)C[C@@H]3O[C@H]1C[C@H](N)[C@H](O)[C@H](C)O1 [doxorubicin, reference compound]
Karpas-422 cells; 50 nM doxorubicin
  increase in the percentage of cells in G2/M phase: 1.5 to 2 fold
Karpas-422 cells; 2 μM ACY-957, 50 nM doxorubicin or both
  cell death / sub-G1 population: modest increase in cell death
[4]
  human CD45 and CD19 markers in bone marrow: significant reduction in the human CD45 and CD19 markers
  white cell burden: decrease in the white cell burden
[9]
  DSBs, comet tail moment: far less sensitive to doxorubicin
[6]
  human CD19 and IgM population in peripheral blood: no significant change in these markers
[10]
  leukemia burden: significantly decreased leukemia burden
[8]
  morphology of bone marrow and spleen cells: No changes in the morphology of spleen or bone marrow cells; also recorded: no abnormalities or changes in the cell morphology in bone marrow or spleens
